Reference: patent US12435044B2, “Pyridazinone herbicides and pyridazinone intermediates used to prepare a herbicide” (FMC Corporation, priority 2018, dated 2025)

Assays:
Assay type in all cases: in vivo
[1] = tested on: barnyardgrass (Echinochloa crus-galli); assay: Test F flooded paddy test; conditions: Flood, after 21 d
From the text: (§1) Three plastic pots (ca. 16-cm diameter) per rate were partially filled with sterilized Tama silt loam soil comprising a 35:50:15 ratio of sand, silt and clay and 2.6% organic matter. Separate plantings for each of the three pots were as follows. Seeds from the U.S. of monochoria (Monochoria vaginalis), sedge, umbrella (small-flower umbrella sedge, Cyperus difformis) and redstem (purple redstem, Ammannia coccinea), were planted into one 16-cm pot for each rate. Seeds from the U.S. of rice flatsedge (Cyperus iria), sprangletop, Brdd. (bearded sprangletop, Leptochloa fascicularis), one stand of 9 or 10 water seeded rice seedlings (Rice, W. S. Jap, Oryza sativa cv. ‘Japonica-M202’ or Rice, W. S. Ind, ‘Indica’), and two stands of 3 or 4 transplanted rice seedlings (Oryza sativa cv. ‘Japonica-M202’) were planted into one 16-cm pot for each rate. Seeds from the U.S. of barnyardgrass (Echinochloa crus-galli), and late watergrass (Echinochloa oryzicola) were planted into one 16-cm pot for each rate.
(§2) Plantings were sequential so that crop and weed species were at the 2.0 to 2.5-leaf stage at time of treatment.
(§3) Potted plants were grown in a greenhouse with day/night temperature settings of 30/27° C., and supplemental balanced lighting was provided to maintain a 16-hour photoperiod. Test pots were maintained in the greenhouse until test completion.
(§4) At time of treatment, test pots were flooded to 3 cm above the soil surface, treated by application of test compounds directly to the paddy water, and then maintained at that water depth for the duration of the test. Effects of treatments on rice and weeds were visually evaluated by comparison to untreated controls after 21 d. Plant response ratings, summarized in Table F, are based on a scale of 0 to 100 where 0 is no effect and 100 is complete control. A dash (-) response means no test result.

[2] = tested on: water seeded rice seedlings (Rice, W. S. Jap, Oryza sativa cv. ‘Japonica-M202’ or Rice, W. S. Ind, ‘Indica’); assay: Test F flooded paddy test; conditions: Flood, after 21 d
From the text: as §1, §2, §3, §4

[3] = tested on: monochoria (Monochoria vaginalis); assay: Test F flooded paddy test; conditions: Flood, after 21 d
From the text: as §1, §2, §3, §4

[4] = tested on: late watergrass (Echinochloa oryzicola); assay: Test F flooded paddy test; conditions: Flood, after 21 d
From the text: as §1, §2, §3, §4

[5] = tested on: transplanted rice seedlings (Oryza sativa cv. ‘Japonica-M202’); assay: Test F flooded paddy test; conditions: Flood, after 21 d
From the text: as §1, §2, §3, §4

[6] = tested on: chamomile (scentless chamomile, Matricaria inodora); assay: Test D postemergence controlled growth environment test
From the text: Seeds of plant species selected from blackgrass (Alopecurus myosuroides), galium (catchweed bedstraw, Galium aparine), kochia (Kochia scoparia), oilseed rape (Brassica napus), barley, spring (Hordeum vulgare), wheat, spring (Triticum aestivum), oat, wild (Avena fatua), barley, winter (Hordeum vulgare) and wheat, winter (Triticum aestivum) were planted into a silt loam soil and treated preemergence with test chemicals formulated in a non-phytotoxic solvent mixture which included a surfactant.
At the same time, plants selected from these crop and weed species and also bluegrass (annual bluegrass, Poa annua), canarygrass (littleseed canarygrass, Phalaris minor), chickweed (common chickweed, Stellaria media), bromegrass, downy (downy bromegrass, Bromus tectorum), field poppy (Papaver rhoeas), field violet (Viola arvensis), foxtail, green (Setaria viridis), deadnettle (henbit deadnettle, Lamium amplexicaule), ryegrass, Italian (Lolium multiflorum), lambsquarters (Chenopodium album), pigweed (Amaranthus retroflexus), chamomile (scentless chamomile, Matricaria inodora), Russian thistle (Salsola kali), speedwell (bird's-eye speedwell, Veronica persica), buckwheat, wild (Polygonum convolvulus), mustard, wild (Sinapis arvensis), radish, wild (Raphanus raphanistrum), windgrass (Apera spica-venti), geranium, cutleaf (Geranium dissectum) and Canada thistle (Cirsium arvense) were planted in pots containing Redi-Earth® planting medium (Scotts Company, 14111 Scottslawn Road, Marysville, Ohio 43041) comprising spaghnum peat moss, vermiculite, wetting agent and starter nutrients and treated with postemergence applications of the test chemicals formulated in the same manner. Plants ranged in height from 2 to 18 cm (1- to 4-leaf stage). Treated plants and controls were maintained in a controlled growth environment for 14 to 21 d after which time all species were compared to controls and visually evaluated. Plant response ratings, summarized in Table D, are based on a scale of 0 to 100 where 0 is no effect and 100 is complete control. A dash (-) response means no test result.

[7] = tested on: foxtail, giant (Setaria faberii); assay: Test A pre-/postemergence greenhouse test
From the text: (§5) Seeds of plant species selected from barnyardgrass (Echinochloa crus-galli), kochia (Kochia scoparia), ragweed (common ragweed, Ambrosia elatior), ryegrass, Italian (Lolium multiflorum), foxtail, giant (Setaria faberii), foxtail, green (Setaria viridis) and pigweed (Amaranthus retroflexus) were planted into a blend of loam soil and sand and treated preemergence with a directed soil spray using test chemicals formulated in a non-phytotoxic solvent mixture which included a surfactant.
(§6) At the same time, plants selected from these weed species and also wheat (Triticum aestivum), corn (Zea mays), blackgrass (Alopecurus myosuroides) and galium (catchweed bedstraw, Galium aparine) were planted in pots containing the same blend of loam soil and sand and treated with postemergence applications of test chemicals formulated in the same manner. Plants ranged in height from 2 to 10 cm and were in the one- to two-leaf stage for the postemergence treatment. Treated plants and untreated controls were maintained in a greenhouse for approximately 10 d, after which time all treated plants were compared to untreated controls and visually evaluated for injury. Plant response ratings, summarized in Table A, are based on a 0 to 100 scale where 0 is no effect and 100 is complete control. A dash (-) response means no test result.

[8] = tested on: foxtail, green (Setaria viridis); assay: Test A pre-/postemergence greenhouse test
From the text: as §5, §6

Row | Structure (SMILES) | Plant response rating (0 to 100 scale) ([1]; 125 g ai/ha) | Plant response rating (0 to 100 scale) ([2]; 125 g ai/ha) | Plant response rating (0 to 100 scale) ([3]; 125 g ai/ha) | Plant response rating (0 to 100 scale) ([4]; 125 g ai/ha) | Plant response rating (0 to 100 scale) ([5]; 125 g ai/ha) | Plant response rating, Chamomile ([6]; 16 g ai/ha) | Plant response rating, Chamomile ([6]; 31 g ai/ha) | Plant response rating, Chamomile ([6]; 62 g ai/ha) | Plant response rating, Chamomile ([6]; 125 g ai/ha) | Plant response rating (0 to 100 scale) ([7]; Postemergence, 31 g ai/ha) | Plant response rating (0 to 100 scale) ([7]; Postemergence, 125 g ai/ha) | Plant response rating (0 to 100 scale) ([7]; Preemergence, 31 g ai/ha) | Plant response rating (0 to 100 scale) ([7]; Preemergence, 125 g ai/ha) | Plant response rating (0 to 100 scale) ([8]; Postemergence, 31 g ai/ha) | Plant response rating (0 to 100 scale) ([8]; Postemergence, 125 g ai/ha) | Plant response rating (0 to 100 scale) ([8]; Preemergence, 31 g ai/ha) | Plant response rating (0 to 100 scale) ([8]; Preemergence, 125 g ai/ha) | further results
1 | Cc1ccc2ccc(C)c(-c3c(O)c(Cl)nn(C)c3=O)c2c1 [Cpd. No. 20, 6-chloro-4-(2,7-dimethyl-1-naphthalenyl)-5-hydroxy-2-methyl-3(2H)-pyridazinone] | 43 | 5 | 95 | 50 | 0 | 95 | 98 | 100 | 100 | 80 | 100 | 80 | 100 | – | – | – | – | Plant response rating (0 to 100 scale) ([1]; 31 g ai/ha): 0; Plant response rating (0 to 100 scale) ([1]; 62 g ai/ha): 0; Plant response rating (0 to 100 scale) ([1]; 250 g ai/ha): 65; Plant response rating (0 to 100 scale) ([2]; 31 g ai/ha): 0; Plant response rating (0 to 100 scale) ([2]; 62 g ai/ha): 0; Plant response rating (0 to 100 scale) ([2]; 250 g ai/ha): 23; Plant response rating (0 to 100 scale) ([3]; 31 g ai/ha): 10; Plant response rating (0 to 100 scale) ([3]; 62 g ai/ha): 90; Plant response rating (0 to 100 scale) ([3]; 250 g ai/ha): 99; Plant response rating (0 to 100 scale) ([4]; 31 g ai/ha): 0; Plant response rating (0 to 100 scale) ([4]; 62 g ai/ha): 35; Plant response rating (0 to 100 scale) ([4]; 250 g ai/ha): 73; Plant response rating (0 to 100 scale) ([5]; 31 g ai/ha): 0; Plant response rating (0 to 100 scale) ([5]; 62 g ai/ha): 0; Plant response rating (0 to 100 scale) ([5]; 250 g ai/ha): 0
2 | Cc1ccc2ccc(F)cc2c1-c1c(O)c(Cl)nn(C)c1=O [Cpd. No. 21] | – | – | – | – | – | – | – | – | – | – | – | – | – | 90 | 100 | 70 | 100 | –
3 | Cc1ccc2ccc(Cl)cc2c1-c1c(O)c(Cl)nn(C)c1=O [Cpd. No. 22] | – | – | – | – | – | – | – | – | – | – | – | – | – | 100 | 100 | 90 | 100 | –
4 | Cc1cc(Cl)c2ccccc2c1-c1c(O)c(Cl)nn(C)c1=O [Cpd. No. 65] | 60 | 0 | 100 | 55 | 15 | 99 | 100 | 100 | 100 | 100 | 100 | 100 | 100 | – | – | – | – | Plant response rating (0 to 100 scale) ([1]; 64 g ai/ha): 10; Plant response rating (0 to 100 scale) ([2]; 64 g ai/ha): 0; Plant response rating (0 to 100 scale) ([3]; 64 g ai/ha): 100; Plant response rating (0 to 100 scale) ([4]; 64 g ai/ha): 20; Plant response rating (0 to 100 scale) ([5]; 64 g ai/ha): 0
